Measurements from article PMC3076140 (Journal of medicinal chemistry, 2011).

Key:
[1] = test system: mouse MC1 and MC3-5 receptors
[2] = test system: melanocortin receptors; details: lactam bridge template; cited from earlier work

MC4R versus MC3R selectivity ([1]; from EC50 values of Table 2) [fold] | agonist efficacy at all the melanocortin receptor isoforms examined ([1]; mMC1R, mMC3R, mMC4R, mMC5R, maximal efficacy compared to NDP-MSH control) | Substance | agonist activity at the melanocortin receptors [2]
5 | full agonists | Tyr-c[Cys-His-D-Phe-(R)-MIM(Arg)-Trp-Asn-Ala-Phe-Cys]-Tyr-NH2 [compound 7] | 
 |  | Tyr-c[β-Asp-His-DPhe-Arg-Trp-Asn-Ala-Phe-Dpr]-Tyr-NH2 (sidechain bridge or staple) | full agonist at the melanocortin receptors that is as potent as the endogenous α-MSH agonist
